Values joined by “and” are separate entries in the source; they are usually repeats but may differ in a detail not shown here. Identical values can stand only once.
Tested on: 857933-349-R-J2-PDC complex spheroid viability
Test: Anticancer human tumor 857933-349-R-J2-PDC patient-derived colon adenocarcinoma cell line growth inhibition [POLQ]
Details: for viability, T/C: stronger effect = lower value
Experimental: Multicellular complex tumor spheroid response to Polymerase (POL) inhibitors (novobiocin, ART-558, RP6685) in combination with a variety of drugs and investigational agents in selected tumor cell lines
The POL inhibitors (novobiocin, ART-558, and RP6685) were evaluated both individually and in combination with standard of care and investigational anticancer small molecules within a complex spheroid model of solid tumors. . Complex spheroids include a stromal component modeled by human endothelial cells (HUVEC) and fibroblasts modeled by human mesenchymal stem cells (MSCs). The concentration ranges selected for each drug and investigational agent were based upon clinically achievable concentrations if the clinical Cmax of the agent was known.
Compounds. The drugs and investigational agents: novobiocin (NSC847541), ART-558 (NSC835418), RP-6685 (NSC848927), peposertib (NSC802822), ceralasertib (NSC780249), elimusertib (NSC800525), camonsertib (NSC841442), AZD-1390 (NSC803789), olaparib (NSC753686), talazoparib (NSC767125), rucaparib (NSC756644), sotorasib (NSC818433), MRTX-1133 (NSC836407), SN-38 (NSC673596), topotecan (NSC609699), epotoside (NSC141540), doxorubicin (NSC123127), gemcitabine (NSC613327), 5-fluorouracil (NSC19893), paclitaxel (NSC125973), vemurafenib (NSC761431), MSA-2 (NSC828583), SN-011 (NSC837082), adavosertib (NSC754352), prexasertib (NSC758257), carboplatin (NSC241240) and oxaliplatin (NSC266046), were obtained from the National Cancer Institute (NCI) Developmental Therapeutics Program Chemical Repository (21). The FDA-approved anticancer drug set is available from the Developmental Therapeutics Program at https://dtp.cancer.gov/organization/dscb/obtaining/. […] The stock solutions were prepared in dimethyl sulfoxide (DMSO, Sigma-Aldrich, St. Louis, MO, cat. D2650), except for the platinum compounds which were prepared in saline (Quality Biological, Gaithersburg, MD, cat. 114-055-101), at 800-fold the tested concentration and stored at -70 degrees C prior to their use. All drugs and investigational agents were tested over a range starting from a high concentration at or near the clinical Cmax and decreasing in half-log increments. If the clinical Cmax for an agent had not been determined, the highest concentration tested was 10 microM, except for SN-38, which was tested at a high concentration of 1 microM.
Cell Culture. All cells were maintained in an incubator at 37 degrees C and 5% CO2 with 95% humidity. The PDC lines were cultured according to standard operating procedures established by the NCI PDMR (https://pdmr.cancer.gov). Table 3 of the manuscript, lists the cell lines along with the number of the three cell types plated to form the mct-spheroids and media for tumor cell growth. After thawing, all PDC lines, except 997537-175-T-J1-PDC and 415267-285-R-J2-PDC, were cultured in Matrigel-coated flasks prepared with a working solution of 1X Ham's F-12 nutrient mix, without supplementation (Thermo Fisher Scientific, cat. 11765054), 100 U/mL penicillin-streptomycin (Thermo Fisher Scientific, cat. 15140122), and 2.5% Matrigel (Corning Inc., Corning, NY, cat. 354248) for the first three passages. The two PDC lines 997537-175-T-J1-PDC and 415267-285-R-J2-PDC were cultured on uncoated flasks. The 857933-349-R-J2-PDC line was cultured in 6C/Colon 1B media containing advanced DMEM/F-12 (Thermo Fisher Scientific, cat. 12634028), 10 mM HEPES (Thermo Fisher Scientific, cat. 15630080), 1X GlutaMAX supplement (Thermo Fisher Scientific, cat. 35050061), 0.1 mg/mL primocin (InvivoGen, San Diego, CA, cat. ant-pm-2), 10% defined fetal bovine serum, heat inactivated (HyClone Laboratories Inc., Logan, UT, cat. SH30070.03HI), 50% L-WRN conditioned media (ATCC, cat. CRL-3276), 1.25 mM N-Acetyl-L-cysteine (Sigma-Aldrich, cat. A9165), 10 mM nicotinamide (Sigma-Aldrich, cat. N0636), 1X B-27 supplement (Thermo Fisher Scientific, cat. 17504044), 1X N-2 supplement (Thermo Fisher Scientific, cat. […]

[1] = curve of first compound, second compound 0.0316 µM
[2] = curve of first compound, second compound 0.1 µM
[3] = curve of first compound, second compound 0.316 µM
[4] = curve of first compound, second compound 1 µM
[5] = curve of first compound, second compound 3.16 µM
[6] = curve of first compound, second compound 10 µM
[7] = second compound 0.0316 µM, first compound 0.0316 µM
[8] = second compound 0.0316 µM, first compound 0.1 µM
[9] = second compound 0.0316 µM, first compound 0.316 µM
[10] = second compound 0.0316 µM, first compound 1 µM
[11] = second compound 0.0316 µM, first compound 3.16 µM
[12] = second compound 0.0316 µM, first compound 10 µM
[13] = second compound 0.1 µM, first compound 0.0316 µM
[14] = second compound 0.1 µM, first compound 0.1 µM
[15] = second compound 0.1 µM, first compound 0.316 µM
[16] = second compound 0.1 µM, first compound 1 µM
[17] = second compound 0.1 µM, first compound 3.16 µM
[18] = second compound 0.1 µM, first compound 10 µM
[19] = second compound 0.316 µM, first compound 0.0316 µM
[20] = second compound 0.316 µM, first compound 0.1 µM
[21] = second compound 0.316 µM, first compound 0.316 µM
[22] = second compound 0.316 µM, first compound 1 µM
[23] = second compound 0.316 µM, first compound 3.16 µM
[24] = second compound 0.316 µM, first compound 10 µM
[25] = second compound 1 µM, first compound 0.0316 µM
[26] = second compound 1 µM, first compound 0.1 µM
[27] = second compound 1 µM, first compound 0.316 µM
[28] = second compound 1 µM, first compound 1 µM
[29] = second compound 1 µM, first compound 3.16 µM
[30] = second compound 1 µM, first compound 10 µM
[31] = second compound 3.16 µM, first compound 0.0316 µM
[32] = second compound 3.16 µM, first compound 0.1 µM
[33] = second compound 3.16 µM, first compound 0.316 µM
[34] = second compound 3.16 µM, first compound 1 µM
[35] = second compound 3.16 µM, first compound 3.16 µM
[36] = second compound 3.16 µM, first compound 10 µM
[37] = second compound 10 µM, first compound 0.0316 µM
[38] = second compound 10 µM, first compound 0.1 µM
[39] = second compound 10 µM, first compound 0.316 µM
[40] = second compound 10 µM, first compound 1 µM
[41] = second compound 10 µM, first compound 3.16 µM
[42] = second compound 10 µM, first compound 10 µM
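Further: spheroids exposed to compounds for seven days before readout.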

COc1cccc2c1C(=O)c1c(O)c3c(c(O)c1C2=O)CC(O)(C(=O)CO)CC3OC1CC(N)C(O)C(C)O1 (stereo not drawn) + Nc1ccc(C#CCN(C(=O)Cc2ncc(C(F)(F)F)cc2C(F)(F)F)c2ccc(F)cc2)nn1
IC50 [1]: 220 nM
IC50 [2]: 212 nM
IC50 [3]: 234 nM
IC50 [4]: 216 nM
IC50 [5]: 175 nM
IC50 [6]: 149 nM
viability, T/C [7]: 74.9%
viability, T/C [8]: 63%
viability, T/C [9]: 43.9%
viability, T/C [10]: 5.65%
viability, T/C [11]: 0.31%
viability, T/C [12]: 0.26%
viability, T/C [13]: 74.3%
viability, T/C [14]: 67.1%
viability, T/C [15]: 40.7%
viability, T/C [16]: 5.86%
viability, T/C [17]: 0.25%
viability, T/C [18]: 0.17%
viability, T/C [19]: 65%
viability, T/C [20]: 85.6%
viability, T/C [21]: 41.1%
viability, T/C [22]: 5.61%
viability, T/C [23]: 0.2%
viability, T/C [24]: 0.19%
viability, T/C [25]: 83%
viability, T/C [26]: 75.7%
viability, T/C [27]: 36.9%
viability, T/C [28]: 9.45%
viability, T/C [29]: 0.22%
viability, T/C [30]: 0.23%
viability, T/C [31]: 72.5%
viability, T/C [32]: 60.4%
viability, T/C [33]: 37.9%
viability, T/C [34]: 5.43%
viability, T/C [35]: 0.39%
viability, T/C [36]: 0.28%
viability, T/C [37]: 66.9%
viability, T/C [38]: 63%
viability, T/C [39]: 26.8%
viability, T/C [40]: 6.24%
viability, T/C [41]: 0.35%
viability, T/C [42]: 0.32%

C=CC(=O)N1CCN(c2nc(=O)n(-c3c(C)ccnc3C(C)C)c3nc(-c4c(O)cccc4F)c(F)cc23)C(C)C1 (stereo not drawn) + Nc1ccc(C#CCN(C(=O)Cc2ncc(C(F)(F)F)cc2C(F)(F)F)c2ccc(F)cc2)nn1
IC50 [1]: > 10000 nM
IC50 [2]: > 10000 nM
IC50 [3]: > 10000 nM
IC50 [4]: > 10000 nM
IC50 [5]: > 10000 nM
IC50 [6]: > 10000 nM
viability, T/C [7]: 90.6%
viability, T/C [8]: 101%
viability, T/C [9]: 113%
viability, T/C [10]: 98.6%
viability, T/C [11]: 113%
viability, T/C [12]: 87.6%
viability, T/C [13]: 99.3%
viability, T/C [14]: 90.7%
viability, T/C [15]: 105%
viability, T/C [16]: 100%
viability, T/C [17]: 98.9%
viability, T/C [18]: 95.5%
viability, T/C [19]: 107%
viability, T/C [20]: 98.5%
viability, T/C [21]: 98.3%
viability, T/C [22]: 112%
viability, T/C [23]: 93.1%
viability, T/C [24]: 83.5%
viability, T/C [25]: 111%
viability, T/C [26]: 107%
viability, T/C [27]: 97.6%
viability, T/C [28]: 100%
viability, T/C [29]: 110%
viability, T/C [30]: 97.2%
viability, T/C [31]: 103%
viability, T/C [32]: 88.8%
viability, T/C [33]: 96.4%
viability, T/C [34]: 101%
viability, T/C [35]: 108%
viability, T/C [36]: 98.5%
viability, T/C [37]: 81.2%
viability, T/C [38]: 101%
viability, T/C [39]: 98.9%
viability, T/C [40]: 92.6%
viability, T/C [41]: 112%
viability, T/C [42]: 95.3%

CC1COCCN1c1cc(C2(O)CC3CCC(C2)O3)c2cnn(-c3ccn[nH]3)c2n1 (stereo not drawn)
viability, T/C (compound 0.0316 µM): 62.7% and 58.8% and 79.7%
viability, T/C (compound 0.1 µM): 51.6% and 50.3% and 63.5%
viability, T/C (compound 0.316 µM): 52.9% and 47% and 57.7%
viability, T/C (compound 1 µM): 44.2% and 42.2% and 45.6%
viability, T/C (compound 3.16 µM): 39.6% and 45.2% and 46.2%
viability, T/C (compound 10 µM): 45.9% and 49.6% and 45.8%
IC50 (curve of compound): 232 nM and 94.2 nM and 805 nM

CC[C@@]1(O)C(=O)OCc2c1cc1n(c2=O)Cc2cc3c(CN(C)C)c(O)ccc3nc2-1
viability, T/C (compound 0.000316 µM): 98.5% and 99.4% and 113%
viability, T/C (compound 0.001 µM): 115% and 95.2% and 99.9%
viability, T/C (compound 0.00316 µM): 79.1% and 91.7% and 88.3%
viability, T/C (compound 0.01 µM): 71.2% and 80% and 87.5%
viability, T/C (compound 0.0316 µM): 66.7% and 63.9% and 53.9%
viability, T/C (compound 0.1 µM): 44.2% and 46.5% and 45.7%
IC50 (curve of compound): 76.4 nM and 80.2 nM and 66.3 nM

Reference: PubChem BioAssay AID1963836 (Molecular Pharmacology Branch, DTP, NCI, 2024)
